{"source": "patent US9205108B2", "about": "“Treatment of traumatic brain injury by using gallium compounds to reduce oxidative stress levels” (priority 2012, dated 2015)", "key": {"3-nitrotyrosine (3-NT)": {"test_system": "3-nitrotyrosine (3-NT)", "test": "Protein nitration analysis (slot blot, anti-3-nitrotyrosine) of whole brain homogenate after controlled cortical contusion", "format": "in vivo, C57BL/6NHsd mice", "details": "for Protein nitration (3-NT): difference compared to control (sham): whole brain homogenate", "method": "(§1) Twenty C57BL/6NHsd mice were used for a study. Mice were set into five groups: sham, 15 minutes saline, 15 minutes gallium, 30 minutes gallium, and 30 minutes saline. A moderate controlled cortical contusion was given to all animals except the four animals in the sham group. The 15 minutes gallium group was injected with 10 mg/kg gallium nitrate at 15 minutes post injury. The 15 minutes saline group was injected with saline at 15 minutes post injury. The 30 minutes gallium group was injected with 10 mg/kg gallium nitrate at 30 minutes post injury. The 30 minutes saline group was injected with saline at 30 minutes post injury. A sample size of 4 was used for each group except gallium nitrate treated samples at 15 minutes post injury (n=3), gallium nitrate treated samples at 30 minutes post injury (n=5), and saline treated animals at 30 minutes (n=3).\n(§2) A gallium compound was delivered by injection, in particular, intraperitoneal injection. […] Due to this unequal pairing, statistics (Student's t-test) were performed using unpaired analysis. P values <0.05 were deemed significant. Western blots (slot blots) were run for all samples and immunoblotting was performed with the following antibodies 2,4-DNP (protein carbonyls) and anti-3-nitrotyrosine (protein nitration). All blots were run twice for reproducibility. All samples were compared to sham (craniotomy only, but no injury), which has been used as a baseline (control).\n(§3) The two parameters for oxidative stress were run on whole brain homogenate using immunochemical detection.\nProtein nitration is determined by indexing levels of 3-nitrotyrosine (3-NT). […] The difference between saline groups and the gallium groups at 30 minutes was statistically significant."}, "[1]": {"details": "100-300 mg/m²/day over 5-7 days; cited from earlier work"}, "protein carbonyls": {"test_system": "protein carbonyls", "test": "Protein carbonyl analysis (slot blot, 2,4-DNP) of whole brain homogenate after controlled cortical contusion", "format": "in vivo, C57BL/6NHsd mice", "details": "for Protein carbonyl: difference compared to control (sham): whole brain homogenate", "method": "as §1, §2, §3"}, "[2]": {"details": "10 mg/kg intraperitoneal injection at 15 minutes post injury"}, "[3]": {"details": "10 mg/kg intraperitoneal injection at 30 minutes post injury"}}, "data": [{"smiles": "O=[N+]([O-])[O-].O=[N+]([O-])[O-].O=[N+]([O-])[O-].[Ga+3]", "note": "[Gallium nitrate, gallium nitrate]", "values": [{"measurement": "Protein nitration (3-NT): difference compared to control (sham)", "setting": "3-nitrotyrosine (3-NT); [2]", "result": 61.3, "unit": "% increase"}, {"measurement": "Protein nitration (3-NT): difference compared to control (sham)", "setting": "3-nitrotyrosine (3-NT); [3]", "result": 18.1, "unit": "% increase"}, {"measurement": "Levels of 3-NT, result in words", "setting": "3-nitrotyrosine (3-NT); treatment at 15 minutes post injury", "result": "increase in the levels of 3-NT"}, {"measurement": "Levels of 3-NT, result in words", "setting": "3-nitrotyrosine (3-NT); treatment at 30 minutes post injury, difference to saline group statistically significant", "result": "significant reduction in the levels of 3-NT"}, {"measurement": "Reduction of calcium excretion", "setting": "[1]", "result": "70+18%"}, {"measurement": "Protein carbonyl: difference compared to control (sham)", "setting": "protein carbonyls; [2]", "result": 17.5, "unit": "% reduction"}, {"measurement": "Protein carbonyl: difference compared to control (sham)", "setting": "protein carbonyls; [3]", "result": 6.6, "unit": "% reduction"}, {"measurement": "Oxidative stress (protein carbonyls), result in words", "setting": "protein carbonyls; both time points (15 and 30 minutes post injury)", "result": "reduction in oxidative stress"}]}]}
